# Laboratory results reported in patent US20260137707A1, “METHODS OF MODULATING ATXN2 EXPRESSION” (University of Utah Research Foundation, priority 2022, published 2026).
# Counter-ions that a name gives are not always drawn. Like-named read-outs stand apart in the source and are kept apart here.
# How the values were obtained:
# [1] = system: ATXN2-luc; details: H2 cells
# [2] = system: ATXN2-luc; details: average ATXN2-luc response of H2 and S1 cells
# [3] = system: ATXN2-luc; assay: cells; details: for activity at 1 µM: read-out: Luc at 1 μm; for activity at 10 µM: read-out: Luc at 10 μm
# [4] = system: ATXN2-luc; assay: Secondary assays, Bright-Glo luciferase in H2 and S2 cells; assay type: cell-based
# Experimental: (§1) Compounds were plated at 2× concentrations in 25 μl in 384 well plates with each compound dose plated in triplicate. An equal volume of S2, H2, or SC cells (24,000 cells/well) suspended in phenol-red free Dulbecco's Modified Eagle Medium (DMEM) with 10% fetal bovine serum and 1× penicillin/streptomycin were added. Cells were grown 24 hrs then assayed first by using the CellTiter-Fluor reagent (20 μl) followed by the addition of Bright-Glo ([…]) luciferase assay, using a multimode plate reader (Beckman DT880). Values were reported as the mean±standard deviation (SD) with n=3. IC50s were determined by the Hill coefficient method using an online tool (https://www.aatbio.com/tools/ic50-calculator).
# These 46 compounds were retested at 12 doses and a zero-compound dose, in multiplexed assays in 96-well plates using CellTiter-Fluor to determine cell viability, then Bright-Glo to determine luciferase expression. The values for H2 and S2 were used as replicates to calculate IC50s and to assess cell viability.
# (§2) For CMV-luc and viability charts, the fitted lines are second-order polynomials. Means and SD are shown.
# [5] = system: CMV-luc; assay: Secondary assays, Bright-Glo luciferase in SC cells; assay type: cell-based; details: minimum CMV-luc luciferase in SC cells over 12 doses
# Experimental: as §1, §2
# [6] = Table 1, 24 hrs, single 10 μM dose, Z-score of luciferase
Compound,"SD from Mean [1, 6] [SD]","SD from Mean ([1]; Table 5S, pilot screen, 10 μM) [SD]",Luc at 1 μm [2],Luc at 10 μm [2],activity at 1 µM [3] [%],activity at 10 µM [3] [%],"IC50 ([4]; ATXN2-luc, Bright-Glo, H2 and S2 values used as replicates, 12 doses, 96-well plates, read-out: Mean IC50) [µM]","min ATXN2-luc ([4]; minimum ATXN2-luc luciferase over 12 doses, H2 and S2 cells) [%]",min SC luc [5] [%]
C/C1=C2/[N-][C@H]([C@H](CC(N)=O)[C@@]2(C)CCC(=O)NC[C@@H](C)OP(=O)([O-])O[C@H]2[C@@H](O)[C@@H](n3cnc4cc(C)c(C)cc43)O[C@@H]2CO)[C@]2(C)N=C(/C(C)=C3N=C(/C=C4N=C1[C@@H](CCC(N)=O)C\4(C)C)[C@@H](CCC(N)=O)[C@]\3(C)CC(N)=O)[C@@H](CCC(N)=O)[C@]2(C)CC(N)=O.[Co] [COBALAMINE],−5.111,−5.111,126,109,–,–,–,–,–
CC[C@H]1CN2CCc3cc(OC)c(OC)cc3[C@@H]2C[C@@H]1C[C@H]1NCCc2cc(O)c(OC)cc21.Cl.Cl.O.O.O.O.O.O.O [Cephaeline dihydrochloride heptahydrate],−4.055,−4.055,16,17,–,–,–,–,–
CCCCCCCCCOc1ccc2[nH]cc(CCN)c2c1 [ChemBridge ID# 5629242],−3.609,–,110,58,–,–,–,–,–
CO[C@H]1[C@@H](O)[C@@H](C)O[C@@H](O[C@H]2CC[C@]3(C)[C@H]4CC[C@]5(C)[C@@H](C6=CC(=O)OC6)CC[C@]5(O)[C@@H]4CC[C@]3(O)C2)[C@@H]1O [EMICYMARIN],−3.080,−3.080,115,31,–,–,–,–,–
CS(=O)(=O)Nc1ccc(Cc2noc(-c3ccc4[nH]cc(CCN)c4c3)n2)cc1 [L-694 247],−3.156,−3.156,110,6,–,–,–,–,–
CO[C@H]1[C@H](O)[C@H](O[C@H]2CC[C@@]3(C=O)[C@H](CC[C@@H]4[C@@H]3CC[C@]3(C)[C@@H](C5=CC(=O)OC5)CC[C@]43O)C2)O[C@@H](C)[C@@H]1O [PERUVOSIDE],−4.038,−4.038,–,–,15,12,–,–,–
CC(=O)Oc1cccc(O)c1 [RESORCINOL MONOACETATE],−6.242,−6.242,–,–,120,5,–,–,–
C[C@]12CC[C@H](O)C[C@H]1CC[C@@H]1[C@@H]2[C@H](O)C[C@]2(C)[C@@H](C3=CC(=O)OC3)CC[C@]12O [SARMENTOGENIN],−3.539,–,–,–,53,24,–,–,–
COc1ccc(CCCOC(Cn2ccnc2)c2ccc(OC)cc2)cc1 (centres unmarked) [SKF-96365],−2.721,−2.721,–,–,104,57,–,–,–
C[C@]12CC[C@H]3[C@@H](CC[C@]4(O)C[C@@H](O)CC[C@]34C=O)[C@@]1(O)CC[C@@H]2C1=CC(=O)OC1 [STROPHANTHIDIN],–,−4.451,–,–,16,15,–,–,–
[H]/N=C(/NCCCCC)N/N=C/c1c[nH]c2ccc(OC)cc12 [TEGASEROD MALEATE],−3.606,–,–,–,–,8,–,–,–
CN1CCN(CCCN2c3ccccc3Sc3ccc(C(F)(F)F)cc32)CC1 [TRIFLUOPERAZINE HYDROCHLORIDE],−5.856,−5.856,–,–,–,2,–,–,–
Nc1ccc(-c2ccc3ncc4ccc(=O)n(-c5cccc(C(F)(F)F)c5)c4c3c2)cn1 [Torin2],–,–,–,–,–,–,0.257,25.42,128.4
COc1cccc(C2(O)CCCCC2CN(C)C)c1 (centres unmarked) [Tramadol],−3.415,–,–,–,–,134,–,–,–
O=c1[nH]c(=O)n([C@H]2C[C@H](O)[C@@H](CO)O2)cc1C(F)(F)F [Trifluridine],−5.158,−5.158,–,–,–,71,–,–,–
